Drawing on ChEMBL document CHEMBL3352484, “Modified 2,4-diaminopyrimidine-based dihydrofolate reductase inhibitors as potential drug scaffolds against Bacillus anthracis” (Bioorg Med Chem, 2015), this text covers MIC for 16 molecules.

Converted amounts (≈) assume the structure as drawn.

The test system of the test is Bacillus anthracis. The experiment in a line: Antimicrobial activity against Bacillus anthracis assessed as growth inhibition measured as turbidity. It counts as functional.
The MIC is the lowest concentration found to suppress growth. For the molecule `CCCC1c2ccccc2C=NN1C(=O)/C=C/c1cc(Cc2cnc(N)nc2N)cc(OC(=O)c2ccc(OC)cc2)c1OC` (racemic), the MIC was 8 µg/mL (≈ 13.2 µM).
`CCCC1c2ccccc2C=NN1C(=O)/C=C/c1cc(C(=O)c2cnc(N)nc2N)cc(OC)c1OC` (racemic): the MIC was > 128 µg/mL.
Consider `CCCC1c2ccccc2C=NN1C(=O)/C=C/c1cc(Cc2cnc(N)nc2N)cc(OC(=O)c2ccccc2)c1OC` (racemic), for which the MIC was 4 µg/mL (≈ 6.94 µM).
Regarding `CCCOc1cc(Cc2cnc(N)nc2N)cc(/C=C/C(=O)N2N=Cc3ccccc3C2CCC)c1OC` (racemic), the MIC worked out at 4 µg/mL (≈ 7.77 µM).
Under `COc1cc(C(=O)c2cnc(N)nc2N)cc(/C=C/C(=O)N2N=Cc3ccccc3C2C=C(C)C)c1OC` (racemic) stands > 128 µg/mL; under `CCCC1c2ccccc2C=NN1C(=O)/C=C/c1cc(Cc2cnc(N)nc2N)cc(OC(=O)c2ccc([N+](=O)[O-])cc2)c1OC` (racemic), 8 µg/mL (≈ 12.9 µM).
Under `CCCC1c2ccccc2C=NN1C(=O)/C=C/c1cc(Cc2cnc(N)nc2N)cc(OCc2ccc(F)cc2)c1OC` (racemic) stands 8 µg/mL (≈ 13.8 µM); under `CCCC1c2ccccc2C=NN1C(=O)/C=C/c1cc(Cc2cnc(N)nc2N)cc(OC)c1OCC` (racemic), 2 µg/mL (≈ 4 µM); under `CCCC1c2ccccc2C=NN1C(=O)/C=C/c1cc(Cc2cnc(N)nc2N)cc(OC)c1OCc1ccccc1` (racemic), 4 µg/mL (≈ 7.11 µM).
Take `CCOc1cc(Cc2cnc(N)nc2N)cc(/C=C/C(=O)N2N=Cc3ccccc3C2C=C(C)C)c1OCC` (racemic): the MIC is 1 µg/mL (≈ 1.9 µM).
Consider `CCCC1c2ccccc2C=NN1C(=O)/C=C/c1cc(Cc2cnc(N)nc2N)cc2c1OCO2` (racemic), for which the MIC is 32 µg/mL (≈ 68 µM).
Under `CCCC1c2ccccc2C=NN1C(=O)/C=C/c1cc(Cc2cnc(N)nc2N)cc(OCc2ccc(C(F)(F)F)cc2)c1OC` (racemic) stands 8 µg/mL (≈ 12.7 µM).
Under `CCOc1c(/C=C/C(=O)N2N=Cc3ccccc3C2C=C(C)C)cc(Cc2cnc(N)nc2N)cc1OC` (racemic) stands 0.5 µg/mL (≈ 0.975 µM).
Under `COc1cc(Cc2cnc(N)nc2N)cc(OC)c1OC` [TRIMETHOPRIM] stands > 2050 µg/mL.
Take `CCCC1c2ccccc2C=NN1C(=O)/C=C/c1cc(Cc2cnc(N)nc2N)cc(OCC)c1OCC` (racemic): the MIC turned out to be 4 µg/mL (≈ 7.77 µM).
Under `CCCC1c2ccccc2C=NN1C(=O)/C=C/c1cc(Cc2cnc(N)nc2N)cc(OC(=O)c2ccc(OC(F)(F)F)cc2)c1OC` (racemic) stands 8 µg/mL (≈ 12.1 µM).
